{"source": "patent US20210096127A1", "about": "“MEANS AND METHODS FOR MONITORING SCAR DEVELOPMENT” (HELMHOLTZ ZENTRUM MÜNCHEN - DEUTSCHES FORSCHUNGSZENTRUM FÜR …, priority 2018, published 2021)", "key": {"[1]": {"test_system": "scar formation", "settings": "stated as known; inhibitor of scar development; cited from earlier work"}, "[2]": {"test_system": "SCAD", "assay": "Chemical screening with the SCAD (Scar-in-a-Dish) assay", "format": "cell-based, mice", "settings": "2.5 μM final concentration", "source_text": "Dorsal skins were collected from C57BL/6J or En1^Cre;R26^mTmG or En1^e;R26^VT2/GK3 mice at different ages as indicated, and washed twice with cold DMEM/F12 (Thermo Fisher Scientific 11320074) medium to remove contaminating blood, and washed once with Hank's Balanced Salt Solution (HBSS, Thermo Fisher Scientific 14175095). After careful removal of non-skin tissue at the ventral side with a surgical scalpel, round full-thickness skin pieces were created with disposable Ø 2 mm biopsy punch (Stiefel 270130), and cultured in 300 μl of DMEM/F12 medium containing 10% FBS, 1× GlutaMAX (Thermo Fisher Scientific 35050038), 1× Penicillin/streptomycin (Thermo Fisher Scientific 15140122), and 1× MEM non-essential amino acids (Thermo Fisher Scientific 11140035) in each well of 96-well plates in a humidified 37° C., 5% CO2 incubator. (Note: the 2 mm skin pieces were cultured in medium but not floating at the liquid air surface). Fresh medium was supplied every second day and the skin tissues were harvested at the indicated time points (day 1 to day 5 after culture), with the fresh tissues serving as day 0 control, and fixed in 2% PFA for overnight at 4° C.\nD0 SCADs (see Example 2) were first treated with Nefopam from Prestwick chemical library (FDA approved library). The initial concentration of the chemical in library format is 1 mM, dissolved in DMSO. The final concentration of chemical used in FDA-library is 2.5 μM.\nAll chemicals in the library are the same (1 mM), and they are added by a robot, eg. 0.5 μl chemical per well of 200 μl culture to make 2.5 μM final concentration. SCAD biopsies were prepared in 96-well plate with 200 μl per well, the automated system was used to add the chemical Nefopam.\nAll the data were compiled on excel sheets and scores were added based on the visual variability observed when compared to the DMSO and media control D5 SCADs.\nThe chemical Nefopam was selected (see Example 7) and further analyzed on SCAD (see Example 2). The treatment was done in triplicates."}}, "note": "Where a name gives a salt, the structure may show the parent alone."}
{"compound": "CN1CCOC(c2ccccc2)c2ccccc2C1", "note": "(stereo not shown) [Prestw-229, Nefopam hydrochloride]", "values": [{"measurement": "scar formation (known effect, positive control)", "setting": "[1]", "result": "known to reduce scar formation"}, {"measurement": "collagen formation in SCAD sections", "setting": "[2]; D5 SCAD sections, compared to control SCAD", "result": "significantly less"}, {"measurement": "scar formation in the whole-mount image", "setting": "[2]; D5 SCAD, 96-well plate, triplicates, compared to control (media treated) SCAD", "result": "visually less scar formation"}, {"measurement": "scar development", "setting": "[2]; D5 SCAD, FIG. 7", "result": "visible reduction of scar development"}]}
